According to patent US7879913B2 (Catholic Healthcare West, priority 2005, dated 2011):
Read-outs that look alike come from different tables or passages of the source.

Key:
[1] = biological target: T1, human α4β2-nAChR (Homo sapiens, UniProt P17787+P43681); test: whole-cell voltage-clamp currents of heterologously expressed human α4β2-nAChR in SH-EP1 cells; type: cell-based; conditions: for reduction of peak current amplitude after initial co-application of nicotine with IPT / peak amplitude of 3 μM nicotine-induced current, % of control / response to nicotine challenge after 15 min of IPT exposure, % of control: 3 μM IPT; for reduction of peak current amplitude after initial co-application of nicotine with IPT: 0 min
T1 construct: expressed in transfected cells; host or cells: SH-EP1 human epithelial cell line (SH-EP1-hα4β2)
Description: Heterologously expressed, human α4β2-nAChRs in cloned human epithelia cell (SH-EP1 cell line) were employed as a cellular model to test IPT's pharmacology. IPT acts as a potent and selective antagonist of α4-containing nAChR. IPT inhibits both peak and steady-state whole-cell current responses to nicotinic agonists and accelerates acute desensitization in a concentration-dependent manner while having long-lasting effects after washout. Its effects are enhanced by exposure to nAChR prior to agonist challenge.
The whole-cell traces of nicotinic responses with and without IPT are superimposed in the right traces. For these and all subsequent traces, current amplitude and time calibration bars are indicated, the holding potential (vH) was −60 mV unless indicated otherwise, and the duration of ligand exposure is indicated by the bars above the trace.
In this and all following figures, unless specifically mentioned, each column (or symbol) is the average from 4-6 cells tested, and vertical bars indicate±standard error.

[2] = biological target: α4β2-nAChR agonist binding sites (Homo sapiens, UniProt P17787+P43681); test: 3H-epibatidine radioligand binding assay
[3] = test system: extracellular dopamine levels in the nucleus accumbens; test: microdialysis of extracellular dopamine in nucleus accumbens of acute nicotine-administered rats; type: in vivo, rat
Description: Finally, the effects of IPT on the extracellular dopamine levels in the nucleus accumbens of acute nicotine-administered rats are illustrated by microdialysis.

[4] = biological target: human α4β4-nAChR (Homo sapiens, UniProt P30926+P43681); test: whole-cell current responses of α4β4-nAChR; type: cell-based
Method: (§1) FIG. 9 illustrates that IPT-mediated functional block persisted for α4β2- but not α4β4-nAChR after 3 min of drug washout.
(§2) FIG. 9C depicts the IPT concentration (abscissa; log μM scale) dependence of inhibition of function (ordinate; peak whole-cell current responses normalized to those in the absence of IPT; mean±SE, n=6 cells) of human α4β2-(▪), α4β4-(◯), or α7-(▴) nAChR when IPT is co-applied with agonists.

[5] = biological target: T2, native α4β2-nAChR (Rattus norvegicus, UniProt P09483+P12390); test: RJR-2403-induced currents in single dopamine neurons acutely dissociated from rat VTA; type: cell-based; conditions: VTA DA neurons; peak and steady-state currents
T2 construct: native expressed α4β2-nAChRs in single dopamine neurons acutely dissociated from rat VTA; from tissue; host or cells: dopamine neurons acutely dissociated from rat ventral tegmental area (VTA)
Description: FIG. 10 illustrates how typical traces representing four VTA DA neurons responded to α4β2-nAChR selective agonist, RJR-2403 with (FIG. 10B) and without IPT (FIG. 10A). […] Finally, FIG. 10C summarizes the inhibition-efficacy relationship curves of IPT-induced inhibition in peak and steady-state currents.

[6] = biological target: human α7-nAChR (Homo sapiens, UniProt P36544); test: whole-cell current responses of α7-nAChR to choline; type: cell-based
Method: as §1, §2
A double asterisk (**) represents p<0.01.

[7] = 3 μM IPT co-applied with 3 μM nicotine, n=6
[8] = 50 μM IPT, 3 μM nicotine, holding potential 0 mV
[9] = 50 μM IPT, 3 μM nicotine, holding potential −40 mV
[10] = 50 μM IPT, 3 μM nicotine, holding potential −80 mV

T1 sequence (P43681 29-627 limits assumed): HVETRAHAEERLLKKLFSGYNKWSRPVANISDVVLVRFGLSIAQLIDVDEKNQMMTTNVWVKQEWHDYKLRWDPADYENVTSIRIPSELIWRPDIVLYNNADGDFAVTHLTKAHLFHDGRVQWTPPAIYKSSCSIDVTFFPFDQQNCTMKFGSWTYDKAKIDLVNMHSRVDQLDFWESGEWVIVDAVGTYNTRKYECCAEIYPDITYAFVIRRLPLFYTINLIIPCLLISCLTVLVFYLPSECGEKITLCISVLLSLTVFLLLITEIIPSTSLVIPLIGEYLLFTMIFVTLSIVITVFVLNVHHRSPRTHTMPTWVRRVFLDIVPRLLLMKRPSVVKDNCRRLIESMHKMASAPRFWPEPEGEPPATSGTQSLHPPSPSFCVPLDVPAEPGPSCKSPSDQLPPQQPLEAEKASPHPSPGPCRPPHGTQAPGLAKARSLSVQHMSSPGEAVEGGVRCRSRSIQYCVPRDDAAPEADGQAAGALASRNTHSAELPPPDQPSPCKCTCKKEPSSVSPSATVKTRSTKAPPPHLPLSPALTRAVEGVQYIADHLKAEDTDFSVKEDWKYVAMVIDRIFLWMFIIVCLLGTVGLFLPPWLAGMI
T1 sequence (P17787 26-502): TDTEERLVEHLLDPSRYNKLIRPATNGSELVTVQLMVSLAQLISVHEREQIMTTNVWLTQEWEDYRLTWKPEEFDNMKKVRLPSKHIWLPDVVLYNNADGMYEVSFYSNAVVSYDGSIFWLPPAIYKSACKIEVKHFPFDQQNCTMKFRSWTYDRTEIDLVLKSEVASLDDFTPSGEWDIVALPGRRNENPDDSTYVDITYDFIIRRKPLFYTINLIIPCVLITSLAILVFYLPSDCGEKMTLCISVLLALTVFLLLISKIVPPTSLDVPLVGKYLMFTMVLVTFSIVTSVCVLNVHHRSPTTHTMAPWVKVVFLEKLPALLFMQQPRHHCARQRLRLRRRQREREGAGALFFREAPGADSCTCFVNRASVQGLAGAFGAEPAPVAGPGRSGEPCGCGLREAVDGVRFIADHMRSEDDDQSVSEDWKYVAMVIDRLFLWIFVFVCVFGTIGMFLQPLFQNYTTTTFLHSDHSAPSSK
Chain of α4β2-nAChR agonist binding sites (P43681 29-627 limits assumed): as the sequence (P43681 29-627 limits assumed) above
Chain of α4β2-nAChR agonist binding sites (P17787 26-502): as the sequence (P17787 26-502) above
Chain of human α4β4-nAChR (P43681 29-627 limits assumed): as the sequence (P43681 29-627 limits assumed) above
Chain of human α4β4-nAChR (P30926 22-498): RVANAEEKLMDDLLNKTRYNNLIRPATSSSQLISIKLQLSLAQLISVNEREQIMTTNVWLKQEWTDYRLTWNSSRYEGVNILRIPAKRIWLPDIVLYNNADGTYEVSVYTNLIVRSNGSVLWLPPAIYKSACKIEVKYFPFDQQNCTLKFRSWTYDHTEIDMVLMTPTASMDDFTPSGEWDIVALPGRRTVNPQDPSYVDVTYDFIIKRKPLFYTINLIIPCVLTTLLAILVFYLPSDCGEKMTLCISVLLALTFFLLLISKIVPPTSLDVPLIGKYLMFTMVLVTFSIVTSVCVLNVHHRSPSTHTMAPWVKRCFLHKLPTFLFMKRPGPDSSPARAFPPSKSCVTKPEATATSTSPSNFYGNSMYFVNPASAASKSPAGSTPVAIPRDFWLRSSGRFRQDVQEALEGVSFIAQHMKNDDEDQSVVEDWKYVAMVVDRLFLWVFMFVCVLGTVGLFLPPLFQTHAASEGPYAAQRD
Chain of human α7-nAChR (P36544 23-502): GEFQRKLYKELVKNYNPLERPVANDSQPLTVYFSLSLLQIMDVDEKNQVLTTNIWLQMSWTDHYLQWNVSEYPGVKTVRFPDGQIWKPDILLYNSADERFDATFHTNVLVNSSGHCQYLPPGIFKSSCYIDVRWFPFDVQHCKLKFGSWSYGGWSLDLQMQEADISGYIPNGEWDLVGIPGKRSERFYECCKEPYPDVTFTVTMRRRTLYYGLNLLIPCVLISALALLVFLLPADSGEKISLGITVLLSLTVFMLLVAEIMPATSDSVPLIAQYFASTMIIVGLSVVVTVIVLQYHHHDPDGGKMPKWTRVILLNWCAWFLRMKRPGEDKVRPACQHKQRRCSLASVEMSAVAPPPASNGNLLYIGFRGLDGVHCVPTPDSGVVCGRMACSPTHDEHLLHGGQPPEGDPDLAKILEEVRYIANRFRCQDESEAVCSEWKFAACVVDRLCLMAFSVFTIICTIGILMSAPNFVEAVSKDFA
T2 sequence (P09483 31-630): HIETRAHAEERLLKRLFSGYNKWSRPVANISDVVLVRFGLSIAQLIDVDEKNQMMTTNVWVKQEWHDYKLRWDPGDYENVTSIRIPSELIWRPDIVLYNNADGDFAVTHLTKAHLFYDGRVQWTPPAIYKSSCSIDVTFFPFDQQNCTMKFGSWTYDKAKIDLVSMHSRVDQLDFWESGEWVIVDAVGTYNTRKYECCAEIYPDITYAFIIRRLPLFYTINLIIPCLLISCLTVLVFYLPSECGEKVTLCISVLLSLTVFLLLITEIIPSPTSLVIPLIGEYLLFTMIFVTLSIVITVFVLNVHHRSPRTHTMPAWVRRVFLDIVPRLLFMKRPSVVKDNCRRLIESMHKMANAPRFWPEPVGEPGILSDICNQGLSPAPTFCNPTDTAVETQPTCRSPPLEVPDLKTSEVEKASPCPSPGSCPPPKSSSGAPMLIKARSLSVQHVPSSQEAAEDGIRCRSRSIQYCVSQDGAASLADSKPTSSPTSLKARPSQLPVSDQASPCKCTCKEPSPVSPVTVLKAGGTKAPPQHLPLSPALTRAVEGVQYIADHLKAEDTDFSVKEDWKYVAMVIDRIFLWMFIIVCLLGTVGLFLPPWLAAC
T2 sequence (P12390 25-500): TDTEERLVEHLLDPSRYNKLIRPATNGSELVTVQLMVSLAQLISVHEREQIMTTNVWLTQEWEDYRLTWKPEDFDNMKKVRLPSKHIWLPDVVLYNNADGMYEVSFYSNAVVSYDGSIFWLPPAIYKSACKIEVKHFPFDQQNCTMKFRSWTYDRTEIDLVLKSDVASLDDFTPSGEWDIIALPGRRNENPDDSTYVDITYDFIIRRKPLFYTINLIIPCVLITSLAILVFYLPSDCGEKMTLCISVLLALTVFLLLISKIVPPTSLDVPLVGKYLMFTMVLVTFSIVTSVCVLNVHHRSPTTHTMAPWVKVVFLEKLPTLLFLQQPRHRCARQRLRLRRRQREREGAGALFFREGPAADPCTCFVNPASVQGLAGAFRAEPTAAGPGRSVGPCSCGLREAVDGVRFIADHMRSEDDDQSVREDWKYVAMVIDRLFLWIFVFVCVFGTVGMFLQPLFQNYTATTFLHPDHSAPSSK

CC(C)NC(C)(C)C(C)C.Cl [IPT, iptakalim hydrochloride]
reduction of peak whole-cell current (Ip) ([1]; 3 μM IPT co-applied with 3 μM nicotine, VH −60 mV, n=6): 20.85±2.69%
acceleration of rate of decay from peak to steady-state current [1, 7]: 21.38±3.40%
reduction of ratio of steady-state to peak current (Is/Ip) [1, 7]: 68.62±2.23%
reduction of peak current amplitude after initial co-application of nicotine with IPT ([1]; 3 μM nicotine, nicotine at start and end only (second value)): 13.6±2.4%
reduction of peak current amplitude after initial co-application of nicotine with IPT ([1]; 3 μM nicotine, repetitive nicotine challenge protocol (first value)): 16.8±6.1%
peak amplitude of 3 μM nicotine-induced current, % of control ([1]; 3 min pre-treatment ending before exposure to nicotine alone): 81±7 % of control
peak amplitude of 3 μM nicotine-induced current, % of control ([1]; 3 min pre-treatment followed by continued co-application): 62±4 % of control
response to nicotine challenge after 15 min of IPT exposure, % of control ([1]; after repeated nicotine challenges (4 sec at 3 min intervals)): 11.9±1.7 % of control
peak amplitude of 3 μM nicotine-induced current, % of control ([1]; co-application with nicotine without pre-treatment): 79±9 % of control
response to nicotine challenge after 15 min of IPT exposure, % of control ([1]; without repeated nicotine challenges): 29.8±3.3 % of control
inhibition of α4β2-nAChR-mediated currents ([1]; 10 μM IPT, 3 min pre-treatment then co-application, 3 μM nicotine): 70±11%
current decay constant, % of control [1, 8]: 44±7.6 % of control
fractional inhibition of whole-cell peak current responses to nicotine [1, 8]: 68.9±3.5%
current decay constant, % of control [1, 9]: 30±1.1 % of control
fractional inhibition of whole-cell peak current responses to nicotine [1, 9]: 76.4±2.6%
current decay constant, % of control [1, 10]: 22±3.4 % of control
fractional inhibition of whole-cell peak current responses to nicotine [1, 10]: 80.9±2.65%
persistence of functional block after 3 min of drug washout ([1]; 50 μM IPT, 3 μM nicotine): persisted
block of peak whole-cell currents ([1]; 50 μM IPT, agonist ACh 10 μM): 65.81±1.49%
block of peak whole-cell currents ([1]; 50 μM IPT, agonist RJR-2403 3 μM): 72.72±1.98%
block of responses to cytisine ([1]; 50 μM IPT, agonist cytisine 100 μM (maximally efficacious, partial agonist)): 49.32±3.46%
block of peak whole-cell currents ([1]; 50 μM IPT, agonist nicotine 3 μM): 76.37±2.56%
IC50 ([1]; co-application condition, 3 μM nicotine, n=6, read-out: IC50 for inhibition of whole-cell steady-state current): 1 µM
IC50 ([1]; co-application with agonist, without pretreatment, 3 μM nicotine, read-out: IC50 for inhibition of peak whole-cell responses): 31 µM
half-time for recovery of peak current response to nicotine challenge ([1]; washout after 4 sec exposure to 50 μM IPT, 3 μM nicotine): ~15 min
IC50 ([1]; with 3 min pretreatment with IPT, 3 μM nicotine, read-out: IC50 for inhibition of peak whole-cell responses): 5 µM
block of 3H-epibatidine binding ([2]; concentrations up to 1 mM): failed to block radioligand binding
effect on nicotine-induced elevation of dopamine in the nucleus accumbens ([3]; local perfusion with IPT 1-100 μM from microdialysis probe after s.c. nicotine 0.5 mg/kg, significant 20-80 minutes after nicotine): tended to decrease nicotine-induced elevation of dopamine
persistence of functional block after 3 min of drug washout ([4]; 50 μM IPT, 1 μM nicotine): not
IC50 ([4]; co-application with agonist (1 μM nicotine), peak current, read-out: IC50 for functional inhibition): 23 µM
effect on RJR-2403-induced current response [5]: inhibited RJR-2403-induced current response in a concentration-dependent manner
inhibition of α7-nAChR-mediated currents ([6]; 10 μM IPT, 3 min pre-treatment then co-application, 1 mM choline): 3.5±0.4%
IC50 ([6]; co-application with agonist (choline), peak current, read-out: IC50 for α7-nAChR blockade): > 1000 µM

CN1CCCC1c1cccnc1 (stereo not drawn) [nicotine, reference compound]
block of 3H-epibatidine binding ([2]; with previously reported IC50 values): blocked
increase in dopamine levels versus final sample prior to nicotine administration ([3]; subcutaneous nicotine 0.5 mg/kg, control group): 100%

CNC1(C)C2CCC(C2)C1(C)C (stereo not drawn) [mecamylamine]
block of 3H-epibatidine binding ([2]; concentrations up to 1 mM): failed to block radioligand binding
